Measured values: US20060258561A1, “Novel NPH insulin preparations” (Novo Nordisk A/S, priority 2003, published 2006)
Where two headings read alike, the source gives them in different places.

Legend:
[1] = target: T1, R-state His^B10 Zn^2+ site of insulin R6 hexamers (Homo sapiens, UniProt P01308); test: TZD-assay: fluorescence displacement of 5-(4-dimethylaminobenzylidene)thiazolidine-2,4-dione from insulin R6 hexamers; format: binding
T1 construct: human insulin comprising additional amino acids, i.e. more than 51 amino acids
T1 sequence (P01308 25-54 limits assumed): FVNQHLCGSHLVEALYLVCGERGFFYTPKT
T1 sequence (P01308 90-110 limits assumed): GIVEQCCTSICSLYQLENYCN
Protocol: However, ligands with substantially higher affinity for the His^B10 Zn^2+-site may be found and characterized by using a fluorescence based competition assay which is based on the displacement of 5-(4-dimethylaminobenzylidene)-thiazolidine-2,4-dione from the R-state His^B10 Zn^2+-site by the incoming ligand in question.
TZD-Assay for Quantitation of Ligands Binding to the R-State His^B10 Zn^2+:
The binding affinity of ligands to the metal site of insulin R6 hexamers are measured in a fluorescense based displacement assay. The fluorescence of 5-(4-dimethylaminobenzylidene)thiazolidine-2,4-dione (TZD) which is a ligand for the metal site of insulin R6 is quenched upon displacement from the metal site to the solution. Titration of a ligand to a stock solution of insulin R6 hexamers with this compound mounted in the metal site allows the binding affinity of these ligands to be determined measuring the fluorescence at 455 nm upon excitation at 410 nm.
Stock solution: 0.02 mM human insulin, 0.007 mM Zn-acetate, 40 mM phenol, 0.01 mM TZD in 50 mM tris buffer adjusted to pH=8.0 with NaOH/ClO4^−.
The ligand is dissolved in DMSO to a concentration of 5 mM and added in aliquots to the stock solution to final concentrations of 0-250 μM.
Fluorescence measurements were carried out on a Perkin Elmer Spectrofluorometer LS50B. The main absorption band was excited at 410 nm and emission was detected at 455 nm. The resolution was 10 nm and 2.5 nm for excitation and emission, respectively.
This equation is fitted to the datapoints ΔF(455 nm))=ΔFmax*[ligand]free/(KD(app)*(1+[TZD]/KTZD)+[ligand]free)) KD(app) is the apparent dissociation constant and Fmax is the fluorescence at maximal ligand concentration. The value of KTZD is measured separately to 230 nM
Two different fitting-procedures can be used. One in which both parameters, KD(app) and Fmax, are adjusted to best fit the data and a second in which the value of Fmax is fixed (Fmax=1) and only KD(app) is adjusted. The given data are from the second fitting procedure. The Solver module of Microsoft Excel can be used to generate the fits from the datapoints.

[2] = NPH-insulin crystallisation in the presence of ligand (co-crystallisation); format: physicochemical; conditions: human insulin NPH crystals grown overnight with ligand equimolar to Zn2+, pH 7.3
Protocol: Preparation of NPH-insulin in the presence of ligands for the His^B10 Zn^2+-site of the R-state insulin hexamer.
Preparations are prepared by mixing equal volumes of the following two solutions: a) 1.2 mM human insulin, 0.46 mM Zn^2+, 28 mM phosphate, 1.6% glycerol, 0.15% m-cresol, 0.065% phenol, and 0.46 mM ligand for the HisB10 Zn^2+-site (see below), optionally the ligand was added as a 9.2 mM DMSO solution, pH 7.5; and b) 0.636 mg/mL protamine sulphate 1.6% glycerol, 0.15% m-cresol, 0.065% phenol, pH 6. The NPH-crystals grow overnight from the resulting suspension, pH 7.3.

[3] = target: T2, metal site of insulin R6 hexamers (Homo sapiens, UniProt P01308); conditions: taken from Huang et al., 1997, Biochemistry 36, 9878-9888; read-out: K4H3N; cited from earlier work
T2 construct: human insulin comprising additional amino acids, i.e. more than 51 amino acids
T2 sequence (P01308 25-54 limits assumed): as the sequence (P01308 25-54 limits assumed) above

[4] = human insulin R6 hexamers, 40 mM phenol, tris pH 8.0, apparent KD, fit with Fmax fixed, read-out: Kd as observed in the 5-(4-imethylaminobenzylidene)-thiazolidine-2,4-dione assay

| Kd [1, 4] [nM] | NPH-insulin crystal size [2] | melting point [°C] | Compound | other results |
| --- | --- | --- | --- | --- |
| 38 | <2 μ | – | c1ccc(-c2ccc(Cn3ccc4cc(-c5nnn[nH]5)ccc43)cc2)cc1 [1-(4-Phenylbenzyl)-5-(1H-tetrazol-5-yl)-1H-indole] | – |
| 174 | <2 μ | – | O=C(O)c1ccc(Cn2c3ccccc3c3cc(-c4nnn[nH]4)ccc32)cc1 [4-[3-(1H-Tetrazol-5-yl)-carbazol-9-ylmethyl]-benzoic acid] | – |
| < 10 | <2 μ | – | Cc1cc(/C=C2\SC(=O)NC2=O)c(C)c2c1[nH]c1ccccc12 [5-(1,4-Dimethyl-9H-carbazol-3-ylmethylene)-thiazolidine-2,4-dione] | – |
| < 10 | 2-6 μ | – | Cc1[nH]c2ccccc2c1/C=C1\SC(=O)NC1=O [5-(2-methyl-1H-indol-3-ylmethylene) thiazolidine-2,4-dione] | – |
| 99 | 2 μ | – | O=C1NC(=O)C(Cc2cccc3ccccc23)S1 (centres unmarked) [5-Napthalen-1-ylmethyl-thiazolidine-2,4-dione] | – |
| 21 | 4-10 μ | – | O=C1NC(=O)/C(=C/c2cccc3ccccc23)S1 [5-Napthalen-1-ylmethylene-thiazolidine-2,4-dione] | – |
| 264 | 5-20 μ | – | O=C(O)c1cc2cc(Br)ccc2cc1O [7-Bromo-3-hydroxy-2-napthoic acid] | – |
| 68 | 1-3 μ | – | c1ccc(Cn2c3ccccc3c3cc(-c4nnn[nH]4)ccc32)cc1 [9-Benzyl-3-(1H-tetrazol-5-yl)-9H-carbazole] | – |
| – | – | – | O=C(O)c1ccc(O)c([N+](=O)[O-])c1 [Example 4H3N, 4-hydroxy-3-nitrobenzoic acid] | Kd [3]: 50000 nM |
| – | – | 256 | COc1cc(/C=C2\SC(=O)NC2=O)cc(I)c1O [Example 167, 5-(4-Hydroxy-3-iodo-5-methoxybenzylidene)thiazolidine-2,4-dione] | – |
| – | – | 310 to 314 | O=C1NC(=O)/C(=C/c2ccc3cc(O)ccc3c2)S1 [Example 171, 5-(6-Hydroxy-2-naphthylmethylene) thiazolidine-2,4-dione] | – |
| – | – | 330 to 333 | O=C1NC(=O)C(=Cc2c[nH]c3ccc([N+](=O)[O-])cc23)S1 [Example 199, 5-(5-Nitro-1H-indol-3-ylmethylene)thiazolidine-2,4-dione] | – |
| – | – | 331 to 333 | COc1cc(O)cc(OC)c1/C=C1\SC(=O)NC1=O [Example 234, 5-(4-Hydroxy-2,6-dimethoxybenzylidene)thiazolidine-2,4-dione] | – |
| – | – | 104 to 105 | Cc1cccc(C)c1/C=C1\SC(=O)NC1=O [Example 235, 5-(2,6-Dimethylbenzylidene)thiazolidine-2,4-dione] | – |
| – | – | 241 to 242 | COc1cccc(OC)c1/C=C1\SC(=O)NC1=O [Example 236, 5-(2,6-Dimethoxybenzylidene)thiazolidine-2,4-dione] | – |
| – | – | 255 to 256 | COc1cc(OCc2c(F)cccc2[N+](=O)[O-])cc(OC)c1/C=C1\SC(=O)NC1=O [Example 237, 5-[4-(2-Fluoro-6-nitrobenzyloxy)-2,6-dimethoxybenzylidene]thiazolidine-2,4-dione] | – |
| – | – | 265 to 266 | O=C1NC(=O)/C(=C/c2cc3ccccc3o2)S1 [Example 238, 5-Benzofuran-2-ylmethylenethiazolidine-2,4-dione] | – |
| – | – | 259 to 263 | CN(C)c1ccc(/C=C/C=C2\SC(=O)NC2=O)cc1 [Example 239, 5-[3-(4-Dimethylaminophenyl)allylidene]thiazolidine-2,4-dione] | – |
| – | – | 203 to 210 | CC(/C=C1\SC(=O)NC1=O)=C\c1ccccc1 [Example 240, 5-(2-Methyl-3-phenylallylidene)thiazolidine-2,4-dione] | – |
| – | – | 338 to 347 | O=C1NC(=O)/C(=C/c2cc3ccccc3[nH]c2=O)S1 [Example 242, 5-(2-Oxo-1,2-dihydroquinolin-3-ylmethylene)thiazolidine-2,4-dione] | – |
| – | – | 200 to 202 | c1cc(COc2ccc3ccccc3c2)cc(-c2nnn[nH]2)c1 [Example 572, 5-(3-(Naphthalen-2-yloxymethyl)-phenyl)-1H-tetrazole] | – |
| – | – | – | CN(C)c1ccc(C=C2SC(O)=NC2=O)cc1 [TZD, 5-(4-dimethylaminobenzylidene)-thiazolidine-2,4-dione, reference compound] | Kd ([1]; measured separately, read-out: KTZD): 230 nM |
| 11 | 2-10 μ | – | O=C(O)COc1ccc(/C=C2\SC(=O)NC2=O)c2ccccc12 [[4-(2,4-Dioxothiazolidin-5-ylidenemethyl)-naphthalen-1-yloxy]-acetic acid] | – |
